In assay [1] the test system is intracellular Ca2+ ([Ca2+]i) in glutamate-damaged primary cultured rat cortical cells. The experiment in a line: Measurement of Ca2+ concentration in cells (Fura-2 AM). Format: cell-based. The settings on record: for Protection ([Ca2+]i): compound 1 M (1 μM) for 1 hr before 100 M glutamate; for Protection ([Ca2+]i) / [Ca2+]i: 24 hr; for [Ca2+]i: compound for 1 hr, control 85.6, glutamate-treated 419.0. On the procedure:
Therefore, the effects of Ca^2+ influx by glutamate according to deoxyschizandrin, gomisin N and wuweizisu C were investigated.
(§1) Rat cortical cultures were treated with compounds at the concentration of 1 M for 1 hr before exposure to 100 M glutamate and then maintained for 24 hr. Values given represent the mean SD (n=3).

For assay [2], the system named is MDA content in glutamate-injured primary cultured rat cortical cells. The experiment in a line: Measurement of malondialdehyde (MDA) content, lipid peroxidation. Format: cell-based. The settings on record: for Protection (MDA content, lipid-peroxidation) / MDA: compound 1 µM for 1 hr before 100 µM glutamate, 24 hr; for MDA: control 70.2, glutamate-treated 198.2. The method, then:
Cells were collected by adding 0.1M potassium phosphate buffer (pH 7.4) to culture-broth-removed remainings from first cultured cortical cells. The collected cells were treated by supersonic wave for 20 seconds and were centrifuged at 4° C. with 3,000 g for 20 minutes to obtain the supernatant.
To 500 μl of cell supernatant, 500 μl of 10% trichroroacetic acid(TCA) was added and leaved for 10 minutes. The precipitated protain was removed by using centrifuge. To the supernatant, final concentration of 0.2% of thiobarbituric acid is added to prepare 1 ml of solution and reacted at 100° C. for 1 hour. Adsorption was measured at 535 nm and converted and obtained by comparing the contents of MDA with 1,1,3,3-tetraethoxypropane as standard. (Yagi K A, 1976, Simple fluorometric assay for lipoperoxide in blood plasma, Biochem Med 15: 212-216).
NO which is over-formed by glutamate and superoxide anion are each combined to form peroxynitrite. (Almeida et al. 1998). Such formed peroxynitrite with free radical which is formed by glutamate toxicity induce oxidative stress on neurons and induce lipid-peroxidation of cells. Wuweizusu C suppressed 67% of lipid-peroxidation induced by glutamate.
as §1

On to `COc1cc2c(c(OC)c1OC)-c1c(cc(OC)c(OC)c1OC)C[C@H](C)[C@H](C)C2` [Deoxyschizandrin, deoxyschizandrin], for which, in assay [1], the “effect on Ca2+ influx by glutamate (in words)” value is “did not significantly effect”, the “Protection ([Ca2+]i)” value was found to be 20.5% and the “[Ca2+]i” value turned out to be 350.7 ± 18.2 nM. Moreover, in assay [2], the “suppression of lipid-peroxidation induced by glutamate (in words)” value was “significantly suppressed”; the “Protection (MDA content, lipid-peroxidation)” value amounted to 49.2%; the MDA came to 135.4 ± 10.7 nmol/mg protein.
As for `COc1cc2c(c(OC)c1OC)-c1c(cc3c(c1OC)OCO3)C[C@H](C)[C@H](C)C2` [Gomisin N, gomisin N], in assay [1], the “Protection ([Ca2+]i)” value came out at 60.3% and the “[Ca2+]i” value stood at 218.0 ± 11.9 nM. In addition, the “Protection ([Ca2+]i)” value in assay [1] (listed as gomisin N) is given as 50.3%. For the same compound, in assay [2], the “suppression of lipid-peroxidation induced by glutamate (in words)” value is “significantly suppressed”; the “Protection (MDA content, lipid-peroxidation)” value was 57.0%; the MDA was determined as 125.6 ± 11.1 nmol/mg protein.
Regarding `COc1c2c(cc3c1-c1c(cc4c(c1OC)OCO4)C[C@H](C)[C@H](C)C3)OCO2` [Wuweizisu C, wuweizisu C], in assay [1], the “Protection ([Ca2+]i)” value came to 67.9% and the “[Ca2+]i” value worked out at 192.6 ± 9.1 nM. In assay [2], the “Protection (MDA content, lipid-peroxidation)” value is on record as 68.7% and the MDA is listed as 110.5 ± 9.0 nmol/mg protein. Also, the “Protection (MDA content, lipid-peroxidation)” value in assay [2] (listed as Wuweizusu C) is 67%.

(Values after patent publication US6653344B2, “Pharmaceutical preparations containing a dibenzocyclooctane lignan derivative for treatment of neurodegenerative disease” (Elcom Bio Technology Co., Ltd., priority 2000, dated 2003).)
